Structures are written as SMILES. Values joined by “and” are separate entries in the source; they are usually repeats but may differ in a detail not shown here. Equal values may be shown once.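 Protocol summary: plate cells (96-well), add compound at 5 concentrations, incubate 48 h, interpolate endpoints linearly. At the GI50, growth is halved. TGI marks complete inhibition of growth.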

The first test has as its system SF-268 CNS. As to the kind of experiment: inhibition of tumour cell growth, NCI panel, 48 h.
Turning to `Cc1nn(CN2CCN(C)CC2)c(=S)n1/N=C/c1cccc2ccccc12`, the GI50 is 24.5 µM and the TGI turned out to be 68.2 µM.
Take `N#C/C(=C1C=C/C(=N/O)C(Br)=C/1)c1ccccc1`: the GI50 is 2.18 µM and the TGI amounted to 11.7 µM.
On to `CN(C)CCNc1cc(-c2ccccc2)nc2ccccc12`, for which the GI50 was 4.98 µM and the TGI was found to be 22.7 µM.
For `CC[CH2][Pb]([CH2]CC)([CH2]CC)[O]C(=O)C(F)(F)F`, the GI50 is 0.156 µM and the TGI was determined as 0.43 µM.
As for `Cc1ccc2c(c1)C(=O)/C(=C/c1ncc([N+](=O)[O-])n1C)O2`, the GI50 was 1.93 µM and the TGI was 5.53 µM.
`O=C(O)Cn1ccc(=O)c2ccc([N+](=O)[O-])cc21`: the TGI is above 100 µM.
Turning to `Cc1ccc(S(=O)(=O)N(CCOc2ccc(/C(N)=N/Cl)cc2)CCOc2ccc(/C(N)=N\Cl)cc2)cc1`, the GI50 was 5.76 µM and the TGI was determined as 20 µM.
On to `COc1ccc2c(c1)c(-c1nc(-c3cn(C)c4ncccc34)cs1)cn2CCCN1CCCCC1`, for which the GI50 was 1.6 µM and the TGI came to 3.21 µM.
For `O=C1c2cccc(NCCN=Cc3cc(O)ccc3O)c2C(=O)c2c(NCCN=Cc3cc(O)ccc3O)cccc21`, the GI50 was 0.776 µM and the TGI was 3.25 µM.
With `CSc1cc(N=Nc2nc3ccccc3s2)c2ccccc2c1O`, the GI50 was 7.87 µM and the TGI came to 17.4 µM.
On to `COc1cc2c3c(n(C)c(=O)c2cc1OC)-c1cc2c(cc1/C3=C\CCCN1C(=O)c3ccccc3C1=O)OCO2`, for which the GI50 was 14.2 µM and the TGI is above 40 µM.
For the compound `Cn1cc(-c2cnc3ccc(NC(=O)Nc4ccc(F)c(Br)c4)cc3n2)cn1`, the GI50 is 2.38 µM and the TGI amounted to 7 µM.

For a further test, the system named is MDA-MB-435. In words: inhibition of tumour cell growth, NCI panel, 48 h.
Take `CCc1c(Oc2ccc(C(C)=O)cc2)c2ccccc2[nH]c1=O`: the GI50 was 16.5 µM and the TGI was above 100 µM.
In turn, `Cc1nc2cccc([N+](=O)[O-])c2c(NCCCN(C)C)c1C` registered a TGI above 100 µM.
As to `Cn1c(N2NC(=O)C(N=Nc3ccc(S(N)(=O)=O)cc3)C2=O)nc(-c2ccco2)c(C#N)c1=O` (stereo not drawn), the GI50 was 32.3 µM and the TGI is above 50 µM.
Consider `Cc1c(C(=O)N/N=C/c2ccc(Cl)cc2)nnn1-c1ccnc2c(C(F)(F)F)cccc12`, for which the GI50 is 4.46 µM and the TGI is 21.3 µM.
As for `Cc1nn(CN2CCN(C)CC2)c(=S)n1/N=C/c1cccc2ccccc12`, the GI50 was 18.6 µM and the TGI came out at 43 µM.
`N#C/C(=C1C=C/C(=N/O)C(Br)=C/1)c1ccccc1`: the GI50 was 0.495 µM and the TGI amounted to 2.32 µM.
Regarding `CN(C)CCNc1cc(-c2ccccc2)nc2ccccc12`, the GI50 is 6.12 µM and the TGI is 20.6 µM.
Taken in the same sequence, the figures for `CC[CH2][Pb]([CH2]CC)([CH2]CC)[O]C(=O)C(F)(F)F` were 0.0379 µM and 0.106 µM.
Regarding `Cc1ccc2c(c1)C(=O)/C(=C/c1ncc([N+](=O)[O-])n1C)O2`, the GI50 is 0.371 µM and the TGI was 1.88 µM.
On to `O=C(O)Cn1ccc(=O)c2ccc([N+](=O)[O-])cc21`, for which the TGI is above 100 µM.
Take `Cc1ccc(S(=O)(=O)N(CCOc2ccc(/C(N)=N/Cl)cc2)CCOc2ccc(/C(N)=N\Cl)cc2)cc1`: the GI50 is 21.8 µM and the TGI is above 100 µM.
Turning to `COc1ccc2c(c1)c(-c1nc(-c3cn(C)c4ncccc34)cs1)cn2CCCN1CCCCC1`, the GI50 was 1.63 µM and the TGI is 3.03 µM.
Consider `O=C1c2cccc(NCCN=Cc3cc(O)ccc3O)c2C(=O)c2c(NCCN=Cc3cc(O)ccc3O)cccc21`, for which the GI50 was 1.53 µM and the TGI worked out at 3.08 µM.
Turning to `CSc1cc(N=Nc2nc3ccccc3s2)c2ccccc2c1O`, the GI50 was 11.1 µM and the TGI was found to be 23.9 µM.
Regarding `COc1cc2c3c(n(C)c(=O)c2cc1OC)-c1cc2c(cc1/C3=C\CCCN1C(=O)c3ccccc3C1=O)OCO2`, the GI50 was above 40 µM and the TGI is above 40 µM.
With `COc1cccc(-c2cc(=O)c3cc(N(C)C)ccc3[nH]2)c1`, the TGI is 0.0103 µM and 0.00361 µM.
For the compound `Cn1cc(-c2cnc3ccc(NC(=O)Nc4ccc(F)c(Br)c4)cc3n2)cn1`, the GI50 was 1.81 µM and the TGI was 3.95 µM.
Take `COc1cc(/C=C/c2cc(/C=C/c3ccc(O)c(OC)c3)n(-c3ccccc3)n2)ccc1O`: the GI50 is 0.0415 µM and the TGI came out at 0.191 µM.

The test system of a further test is SN12C renal. As to the kind of experiment: inhibition of tumour cell growth, NCI panel, 48 h.
Regarding `CCc1c(Oc2ccc(C(C)=O)cc2)c2ccccc2[nH]c1=O`, the GI50 is 16.6 µM and the TGI is 61.8 µM.
The compound `Cc1nc2cccc([N+](=O)[O-])c2c(NCCCN(C)C)c1C` had a TGI of 16.1 µM.
Take `Cn1c(N2NC(=O)C(N=Nc3ccc(S(N)(=O)=O)cc3)C2=O)nc(-c2ccco2)c(C#N)c1=O` (stereo not drawn): the GI50 is above 50 µM and the TGI was above 50 µM.
As to `Cc1c(C(=O)N/N=C/c2ccc(Cl)cc2)nnn1-c1ccnc2c(C(F)(F)F)cccc12`, the GI50 was 3.51 µM and the TGI amounted to 15.5 µM.
For `Cc1nn(CN2CCN(C)CC2)c(=S)n1/N=C/c1cccc2ccccc12` the same measures were 24.4 µM and 39.2 µM.
Taken in the same sequence, the figures for `N#C/C(=C1C=C/C(=N/O)C(Br)=C/1)c1ccccc1` were 3.68 µM and 16.8 µM.
On to `CN(C)CCNc1cc(-c2ccccc2)nc2ccccc12`, for which the GI50 was 6.55 µM and the TGI was 44.1 µM.
Taken in the same sequence, the figures for `CC[CH2][Pb]([CH2]CC)([CH2]CC)[O]C(=O)C(F)(F)F` were 0.195 µM and 0.535 µM.
Regarding `Cc1ccc2c(c1)C(=O)/C(=C/c1ncc([N+](=O)[O-])n1C)O2`, the GI50 is 1.77 µM and the TGI worked out at 6.55 µM.
Turning to `O=C(O)Cn1ccc(=O)c2ccc([N+](=O)[O-])cc21`, the TGI is above 100 µM.
Consider `Cc1ccc(S(=O)(=O)N(CCOc2ccc(/C(N)=N/Cl)cc2)CCOc2ccc(/C(N)=N\Cl)cc2)cc1`, for which the GI50 is 5.52 µM and the TGI was above 100 µM.
`COc1ccc2c(c1)c(-c1nc(-c3cn(C)c4ncccc34)cs1)cn2CCCN1CCCCC1`: the GI50 was 1.71 µM and the TGI was 3.17 µM.
Take `O=C1c2cccc(NCCN=Cc3cc(O)ccc3O)c2C(=O)c2c(NCCN=Cc3cc(O)ccc3O)cccc21`: the GI50 is 0.737 µM and the TGI turned out to be 3.9 µM.
For the compound `CSc1cc(N=Nc2nc3ccccc3s2)c2ccccc2c1O`, the GI50 was 6.1 µM and the TGI worked out at 12.9 µM.
With `COc1cccc(-c2cc(=O)c3cc(N(C)C)ccc3[nH]2)c1`, the TGI was above 100 µM.
Take `Cn1cc(-c2cnc3ccc(NC(=O)Nc4ccc(F)c(Br)c4)cc3n2)cn1`: the GI50 was 1.87 µM and the TGI was 4.79 µM.
For `COc1cc(/C=C/c2cc(/C=C/c3ccc(O)c(OC)c3)n(-c3ccccc3)n2)ccc1O`, the GI50 was 0.313 µM and the TGI worked out at 2.2 µM.

For the next test, the system named is SK-MEL-2 melanoma. In words: inhibition of tumour cell growth, NCI panel, 48 h.
Turning to `CCc1c(Oc2ccc(C(C)=O)cc2)c2ccccc2[nH]c1=O`, the GI50 was 59.5 µM and the TGI was above 100 µM.
`Cc1nc2cccc([N+](=O)[O-])c2c(NCCCN(C)C)c1C` showed a TGI above 85.6 µM.
As for `Cn1c(N2NC(=O)C(N=Nc3ccc(S(N)(=O)=O)cc3)C2=O)nc(-c2ccco2)c(C#N)c1=O` (stereo not drawn), the GI50 was above 50 µM and the TGI was above 50 µM.
For `Cc1c(C(=O)N/N=C/c2ccc(Cl)cc2)nnn1-c1ccnc2c(C(F)(F)F)cccc12`, the GI50 was 18.1 µM and the TGI was 54.9 µM.
For `Cc1nn(CN2CCN(C)CC2)c(=S)n1/N=C/c1cccc2ccccc12` the same measures were 20.1 µM and 39 µM.
Regarding `N#C/C(=C1C=C/C(=N/O)C(Br)=C/1)c1ccccc1`, the GI50 is 3.64 µM and the TGI came out at 13.9 µM.
As to `CN(C)CCNc1cc(-c2ccccc2)nc2ccccc12`, the GI50 was 11.3 µM and the TGI worked out at 24.9 µM.
Regarding `CC[CH2][Pb]([CH2]CC)([CH2]CC)[O]C(=O)C(F)(F)F`, the GI50 was 0.214 µM and the TGI was found to be 0.462 µM.
For `Cc1ccc2c(c1)C(=O)/C(=C/c1ncc([N+](=O)[O-])n1C)O2` the same measures were 1.88 µM and 3.54 µM.
`O=C(O)Cn1ccc(=O)c2ccc([N+](=O)[O-])cc21` came in with a TGI above 100 µM.
With `Cc1ccc(S(=O)(=O)N(CCOc2ccc(/C(N)=N/Cl)cc2)CCOc2ccc(/C(N)=N\Cl)cc2)cc1`, the GI50 is above 100 µM and the TGI is above 100 µM.
Turning to `COc1ccc2c(c1)c(-c1nc(-c3cn(C)c4ncccc34)cs1)cn2CCCN1CCCCC1`, the GI50 is 2.07 µM and the TGI came out at 4.46 µM.
As for `O=C1c2cccc(NCCN=Cc3cc(O)ccc3O)c2C(=O)c2c(NCCN=Cc3cc(O)ccc3O)cccc21`, the GI50 was 2.02 µM and the TGI is 3.91 µM.
Regarding `CSc1cc(N=Nc2nc3ccccc3s2)c2ccccc2c1O`, the GI50 was 8.41 µM and the TGI stood at 22 µM.
Take `COc1cccc(-c2cc(=O)c3cc(N(C)C)ccc3[nH]2)c1`: the GI50 is 0.0359 µM and 0.00735 µM.
Consider `Cn1cc(-c2cnc3ccc(NC(=O)Nc4ccc(F)c(Br)c4)cc3n2)cn1`, for which the GI50 was 1.97 µM and the TGI is 4.13 µM.
Take `COc1cc(/C=C/c2cc(/C=C/c3ccc(O)c(OC)c3)n(-c3ccccc3)n2)ccc1O`: the GI50 is 0.266 µM and the TGI turned out to be 2.03 µM.

Another test relates to RXF 393 renal. In words: inhibition of tumour cell growth, NCI panel, 48 h.
`CCc1c(Oc2ccc(C(C)=O)cc2)c2ccccc2[nH]c1=O`: the GI50 is 20.1 µM and the TGI came to 45.7 µM.
Compound `Cc1nc2cccc([N+](=O)[O-])c2c(NCCCN(C)C)c1C` displayed a TGI above 100 µM.
For the compound `Cn1c(N2NC(=O)C(N=Nc3ccc(S(N)(=O)=O)cc3)C2=O)nc(-c2ccco2)c(C#N)c1=O` (stereo not drawn), the GI50 is 9.65 µM and the TGI came to 26.1 µM.
Consider `Cc1c(C(=O)N/N=C/c2ccc(Cl)cc2)nnn1-c1ccnc2c(C(F)(F)F)cccc12`, for which the GI50 was 3.06 µM and the TGI was determined as 11.2 µM.
On to `Cc1nn(CN2CCN(C)CC2)c(=S)n1/N=C/c1cccc2ccccc12`, for which the GI50 was 18.2 µM and the TGI turned out to be 34.1 µM.
For `N#C/C(=C1C=C/C(=N/O)C(Br)=C/1)c1ccccc1` the same measures were 3.01 µM and 11.5 µM.
Consider `CC[CH2][Pb]([CH2]CC)([CH2]CC)[O]C(=O)C(F)(F)F`, for which the GI50 is 0.0724 µM and the TGI is 0.277 µM.
On to `COc1ccc2c(c1)c(-c1nc(-c3cn(C)c4ncccc34)cs1)cn2CCCN1CCCCC1`, for which the GI50 was 1.68 µM and the TGI is 3.29 µM.
Taken in the same sequence, the figures for `O=C1c2cccc(NCCN=Cc3cc(O)ccc3O)c2C(=O)c2c(NCCN=Cc3cc(O)ccc3O)cccc21` were 1.43 µM and 2.96 µM.
On to `CSc1cc(N=Nc2nc3ccccc3s2)c2ccccc2c1O`, for which the GI50 is 5.99 µM and the TGI is 14.3 µM.
For `COc1cc2c3c(n(C)c(=O)c2cc1OC)-c1cc2c(cc1/C3=C\CCCN1C(=O)c3ccccc3C1=O)OCO2`, the GI50 was above 40 µM and the TGI was above 40 µM.
Consider `Cn1cc(-c2cnc3ccc(NC(=O)Nc4ccc(F)c(Br)c4)cc3n2)cn1`, for which the GI50 was 1.73 µM and the TGI came out at 4.67 µM.
Take `COc1cc(/C=C/c2cc(/C=C/c3ccc(O)c(OC)c3)n(-c3ccccc3)n2)ccc1O`: the GI50 is 0.258 µM and the TGI is 0.888 µM.

Source of the values: PubChem BioAssay (NCI).
